Source: US8188119B2, “Pyridine derivatives substituted with heterocyclic ring and γ-glutamylamino group, and antifungal agents containing same” (Eisai R&D Management Co., Ltd, priority 2008, dated 2012)
Converted amounts (≈) assume the structure as drawn. Like-named read-outs stand apart in the source and are kept apart here.

Columns and labels:
[1] = buffer
[2] = Pharmacokinetic evaluation of compound of Example 1 in mice (plasma concentration, LC-MS/MS); type: in vivo; settings: female ICR mice, tail vein, 3 mg/kg
Protocol: 1. Pharmacokinetic Evaluation of Compound of Example 1 in Mice […] The blood samples were put in sampling tubes and stored under ice cooling, after which they were centrifuged for 5 minutes at 10,500×g and at 4° C. The plasma thus obtained was accurately divided into 10 μL amounts and stored at −20° C. until they were analyzed. The plasma concentrations of the compound of Example 1 and the active form thereof were measured using a liquid chromatography mass spectrometer (LC-MS/MS: Waters, Quattro Ultima Pt), and quantified by internal standard method. […] MultiScreen™) and analyzed by LC-MS/MS (Waters, Quattro Ultima Pt). In the chromatogram thus obtained, the surface area of the peaks for the compound of Example 1, the active form thereof (the parent compound of the compound of Example 1), and the internal standard substance were analyzed with analytic software (Waters: MassLynx 4.0), and the concentration of the compound included in the plasma was calculated by internal standard method. The active form concentration after administration of the compound of Example 1 was corrected with the molecular weight ratio, that is, the value of (the molecular weight of the compound of Example 1)/(the molecular weight of the active form).

[3] = Comparative test of solubility in water (Britton-Robinson buffer); type: physicochemical; settings: for solubility: aqueous buffer, Britton-Robinson buffer (ionic strength: 0.3), 25° C.; for Solubility in water compared with the parent compound: conclusion from Table 1
[4] = Pharmacokinetic evaluation of compounds of Examples 2 and 3 in mice (plasma concentration, LC-MS); type: in vivo; settings: female ICR mice, tail vein, 3 mg/kg as active form equivalent; for Plasma concentration of the administered compound: 20 min to 8 h; for Plasma concentration of the administered compound / Concentration of the active form in plasma after administration of the compound: FIG. 2
Protocol: 2. Pharmacokinetic Evaluation of Compound of Examples 2 and 3 in Mice
The compounds of Examples 2 and 3 were dissolved in respective concentrations of 1 and 1.5 mg/mL with 5% glucose (Otsuka Pharmaceutical) containing a 10 mM hydrochloric acid solution (Wako Pure Chemicals), and the active form was dissolved in a concentration of 0.5 mg/mL in 5% glucose (Otsuka Pharmaceutical) containing a 10 mM hydrochloric acid solution (Wako Pure Chemicals).
Using seven-week-old female ICR mice (Charles River Japan), with two mice per group, the compound of the present invention and the active form thereof were administered into the tail vein in a dose of 3 mg/kg, calculated as an active form equivalent. The tail vein was punctured 20 minutes, 45 minutes, and 1.5, 3, 5, and 8 hours after administration, and blood was collected with a heparin-treated pipette. The blood samples were put in sampling tubes and stored under ice cooling, after which they were centrifuged for 5 minutes at 10,500×g and at 4° C. The plasma thus obtained was accurately divided into 5 μL amounts and stored at −20° C. until they were analyzed.
The plasma concentrations of the compounds of Examples 2 and 3 and the active form thereof were measured using a liquid chromatography mass spectrometer (LC-MS: Waters, ZQ mass detector), and quantified by internal standard method. Imipramine hydrochloride (Sigma) was dissolved in a mixed solution of acetonitrile and methanol (9:1) so that the concentration would be 1 μmol/L, to prepare an internal standard substance solution (IS solution). The plasma was melted, after which 50 μL of IS solution was added thereto and mixed while still cooled with ice, and this was centrifuged (deproteinated) for 10 minutes at 1607×g and at 4° C., after which the supernatant was analyzed by LC-MS (Waters, ZQ mass detector). In the chromatogram thus obtained, the surface area of the peaks for the compounds of Examples 2 and 3, the active form thereof, and the internal standard substance were analyzed with analytic software (Waters: MassLynx 4.0), and the concentration of the compound included in the plasma was calculated by internal standard method.

[5] = Stability in solution in Britton-Robinson buffer; settings: Britton-Robinson buffer (ionic strength: 0.3), 25° C.
[6] = pH 3, read-out: Solubility (mg/mL) pH 3
[7] = pH 7, read-out: Solubility (mg/mL) pH 7

Compound	Stability in solution (remainder (%) after 24 h in dark place) pH 3 [1] [%]	Stability in solution (remainder (%) after 24 h in dark place) pH 7 [1] [%]	Conversion into the active form in the bodies of the mice [2]	Plasma concentration of the active form after administration of the compound ([2]; FIG. 1)	Plasma concentration of the administered compound ([2]; FIG. 1)	solubility [3, 6] [mg/mL]	solubility [3, 7] [mg/mL]	Solubility in water compared with the parent compound [3]	Conversion into the active form in the bodies of the mice [4]	Plasma concentration of the administered compound [4]	Concentration of the active form in plasma after administration of the compound [4]	Stability in solution (remainder (%) after 24 h in dark place) pH 2 ([5]; pH 2 (printed in pH 3 column), 24 h in dark place)	Stability in solution (remainder (%) after 24 h in dark place) pH 4 ([5]; pH 4 (printed in pH 3 column), 24 h in dark place)	Stability in solution (remainder (%) after 24 h in dark place) pH 7 ([5]; pH 7, 24 h in dark place) [%]
N[C@@H](CCC(=O)Nc1ncccc1-c1cc(Cc2ccc(COc3ccccn3)cc2)no1)C(=O)O [Example 1, (S)-2-Amino-4-(3-(3-(4-(pyridin-2-yloxymethyl)-benzyl)-isoxazol-5-yl)-pyridin-2-ylcarbamoyl)-butyric acid]	96	92	rapidly converted into the active form	increased quickly from immediately after administration	decreased quickly after administration	1.1 (≈ 2260 µM)	0.3 (≈ 615 µM)	higher solubility in water than does the parent compound	–	–	–	–	–	–
COC(=O)[C@@H](N)CCC(=O)Nc1ncccc1-c1cc(Cc2ccc(COc3ccccn3)cc2)no1 [Example 2, (S)-2-Amino-4-(3-{-[4-(pyridin-2-yloxymethyl)-benzyl]soxazol-5-yl}-pyridin-2-ylcarbamoyl)-butyric acid methyl ester]	88	44	–	–	–	45 (≈ 89700 µM)	0.2 (≈ 399 µM)	higher solubility in water than does the parent compound	rapidly converted into the active form	not detected	rose sharply after administration	–	–	–
Nc1ncccc1-c1cc(Cc2ccc(COc3ccccn3)cc2)no1 [Parent compound, 3-(3-(4-(Pyridin-2-yloxymethyl)-benzyl)-isoxazol-5-yl)-pyridin-2-ylamine]	–	–	–	–	–	0.29 (≈ 809 µM)	0.001 (≈ 2.79 µM)	–	–	–	–	90 (pH 2) %	99 (pH 4) %	95
CN(C)CCOC(=O)[C@@H](N)CCC(=O)Nc1ncccc1-c1cc(Cc2ccc(COc3ccccn3)cc2)no1 [Example 3, (S)-2-Amino-4-(3-{3-[4-(pyridin-2-yloxymethyl)-benzyl]-isoxazol-5-yl}-pyridin-2-ylcarbamoyl)-butyric acid 2-dimethylamino-ethyl ester]	116	82	–	–	–	12 (≈ 21500 µM)	1.1 (≈ 1970 µM)	higher solubility in water than does the parent compound	rapidly converted into the active form	not detected	rose sharply after administration	–	–	–
